In patent US11225505B2, “Antimicrobial polymyxin derivative compounds” (MONASH UNIVERSITY, priority 2015, dated 2022):
Values after ≈ are worked out from the molar mass of the structure shown. Where two headings read alike, the source gives them in different places. Where a SMILES comes first, the peptide text is derived from it. Bridges are numbered along the chain shown (N, C = ends). [ ]: non-standard residue; d: D form. The star is where a group is joined. Benzothiophen(2-yl)carbonyl = O=C(c1cc2ccccc2s1)*; Benzothiazole(5-carbonyl) = O=C(c1ccc2scnc2c1)*; Indazole3carbonyl = O=C(c1n[nH]c2ccccc12)*; Quinoline3carbonyl = O=C(c1cnc2ccccc2c1)*; Quinaldoyl = O=C(c1ccc2ccccc2n1)*; X11 = Cn1nc(C(=O)*)c2ccccc21; X5 = Cc1ccc2nc(C(=O)*)cn2c1; Dab = NCC[C@H](N)C(=O)O; Abu = CC[C@H](N)C(=O)O; Dap = NC[C@H](N)C(=O)O

Columns and labels:
Assay type in all cases: cell-based
[1] = tested on: Acinetobacter baumannii FADDI-AB030; experiment: microbe, parasite or virus in culture
Summary of the method: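 Lipopeptide TFA salts tested against the multidrug-resistant clinical isolate by CLSI (M100-S24) broth microdilution in cation-adjusted Mueller-Hinton broth, with polymyxin B sulphate as control; MIC read.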

[2] = tested on: Pseudomonas aeruginosa ATCC 27853
Summary of the method: (§1)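 Susceptibility of polymyxin-susceptible Gram-negative strains, including multidrug-resistant clinical isolates PA022 and AB034, was tested by broth microdilution. Cation-adjusted Mueller-Hinton broth and the CLSI M100-S24 method were used.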

[3] = tested on: Klebsiella pneumoniae Kp BM1
Summary of the method: (§2)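 Gram-negative bacteria susceptible to polymyxin were exposed to lipopeptide trifluoroacetates in CAMHB, and growth inhibition was read as the MIC by the CLSI microdilution protocol.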

[4] = tested on: Enterobacter cloacae FADDI-EC006
Summary of the method: as §1

[5] = tested on: Enterobacter cloacae FADDI-EC003
Summary of the method: as §1

[6] = tested on: Pseudomonas aeruginosa FADDI-PA022
Summary of the method: as §1

[7] = tested on: Klebsiella pneumoniae FADDI-KP032
Summary of the method: as §1

[8] = tested on: Acinetobacter baumannii FADDI-AB034
Summary of the method: as §1

[9] = tested on: Pseudomonas aeruginosa FADDI-PA038
Summary of the method: as §1

[10] = tested on: Klebsiella pneumoniae FADDI-KP022
Summary of the method: as §1

[11] = tested on: Pseudomonas aeruginosa FADDI-PA01
Summary of the method: as §1

[12] = tested on: Acinetobacter baumannii ATCC 17978
Summary of the method: as §1

[13] = tested on: Enterobacter cloacae FADDI-EC001
Summary of the method: as §2

Structure (SMILES) | Minimum inhibitory concentration ([1]; FADDI-AB030) | Minimum inhibitory concentration ([2]; ATCC 27853) | Minimum inhibitory concentration ([3]; Kp BM1) | Minimum inhibitory concentration ([4]; FADDI-EC006) | Minimum inhibitory concentration ([5]; FADDI-EC003) | Minimum inhibitory concentration ([6]; FADDI-PA022) | Minimum inhibitory concentration ([7]; FADDI-KP032) | Minimum inhibitory concentration ([8]; FADDI-AB034) | Minimum inhibitory concentration ([9]; FADDI-PA038) | Minimum inhibitory concentration ([10]; FADDI-KP022) | Minimum inhibitory concentration ([11]; FADDI-) | Minimum inhibitory concentration ([12]; ATCC 17978) | Minimum inhibitory concentration ([13]; FADDI-EC001) | also measured
CC[C@@H]1NC(=O)[C@@H](CC(C)C)NC(=O)[C@H](CCN)NC(=O)[C@@H](NC(=O)[C@H](CN)NC(=O)[C@@H](NC(=O)[C@H](CCN)NC(=O)c2cn3cc(C)ccc3n2)[C@@H](C)O)CCNC(=O)[C@H]([C@@H](C)O)NC(=O)[C@H](CCN)NC(=O)[C@H](CCN)NC1=O [Compound 49] (X5-[Dab]T[Dap][Dab][Dab][dL][Abu][Dab][Dab]T; lactam 4-C) | 1 µg/mL (≈ 0.873 µM) | 0.25 µg/mL (≈ 0.218 µM) | 0.25 µg/mL (≈ 0.218 µM) | 1 µg/mL (≈ 0.873 µM) | <0.125 µg/mL | 0.5 µg/mL (≈ 0.437 µM) | <0.125 µg/mL | 4 µg/mL (≈ 3.49 µM) | 0.5 µg/mL (≈ 0.437 µM) | <0.125 µg/mL | 0.25 µg/mL (≈ 0.218 µM) | 2 µg/mL (≈ 1.75 µM) | <0.125 µg/mL | 
CC[C@@H]1NC(=O)[C@@H](CC(C)C)NC(=O)[C@H](CCN)NC(=O)[C@@H](NC(=O)[C@H](CN)NC(=O)[C@@H](NC(=O)[C@H](CCN)NC(=O)c2cc3ccccc3s2)[C@@H](C)O)CCNC(=O)[C@H]([C@@H](C)O)NC(=O)[C@H](CCN)NC(=O)[C@H](CCN)NC1=O [Compound 50] ({Benzothiophen(2-yl)carbonyl}-[Dab]T[Dap][Dab][Dab][dL][Abu][Dab][Dab]T; lactam 4-C) | 0.5 µg/mL (≈ 0.436 µM) | 0.5 µg/mL (≈ 0.436 µM) | 0.5 µg/mL (≈ 0.436 µM) | 0.5 µg/mL (≈ 0.436 µM) | 0.5 µg/mL (≈ 0.436 µM) | 0.25 µg/mL (≈ 0.218 µM) | 0.25 µg/mL (≈ 0.218 µM) | <0.125 µg/mL | 0.25 µg/mL (≈ 0.218 µM) | <0.125 µg/mL | <0.125 µg/mL | <0.125 µg/mL | 0.25 µg/mL (≈ 0.218 µM) | 
CC[C@@H]1NC(=O)[C@@H](CC(C)C)NC(=O)[C@H](CCN)NC(=O)[C@@H](NC(=O)[C@H](CN)NC(=O)[C@@H](NC(=O)[C@H](CCN)NC(=O)c2nn(C)c3ccccc23)[C@@H](C)O)CCNC(=O)[C@H]([C@@H](C)O)NC(=O)[C@H](CCN)NC(=O)[C@H](CCN)NC1=O [Compound 51] (X11-[Dab]T[Dap][Dab][Dab][dL][Abu][Dab][Dab]T; lactam 4-C) | <0.125 µg/mL | 0.25 µg/mL (≈ 0.218 µM) | <0.125 µg/mL | 0.5 µg/mL (≈ 0.437 µM) | 0.25 µg/mL (≈ 0.218 µM) | 0.25 µg/mL (≈ 0.218 µM) | <0.125 µg/mL | 0.25 µg/mL (≈ 0.218 µM) | 1 µg/mL (≈ 0.873 µM) | <0.125 µg/mL | 0.25 µg/mL (≈ 0.218 µM) | 0.25 µg/mL (≈ 0.218 µM) | <0.125 µg/mL | 
CC[C@@H]1NC(=O)[C@@H](CC(C)C)NC(=O)[C@H](CCN)NC(=O)[C@@H](NC(=O)[C@H](CN)NC(=O)[C@@H](NC(=O)[C@H](CCN)NC(=O)c2cnc3ccccc3c2)[C@@H](C)O)CCNC(=O)[C@H]([C@@H](C)O)NC(=O)[C@H](CCN)NC(=O)[C@H](CCN)NC1=O [Compound 52] (Quinoline3carbonyl-[Dab]T[Dap][Dab][Dab][dL][Abu][Dab][Dab]T; lactam 4-C) | 0.5 µg/mL (≈ 0.438 µM) | 0.5 µg/mL (≈ 0.438 µM) | 0.5 µg/mL (≈ 0.438 µM) | 1 µg/mL (≈ 0.875 µM) | 0.5 µg/mL (≈ 0.438 µM) | 0.5 µg/mL (≈ 0.438 µM) | <0.125 µg/mL | 1 µg/mL (≈ 0.875 µM) | 0.25 µg/mL (≈ 0.219 µM) | <0.125 µg/mL | 0.5 µg/mL (≈ 0.438 µM) | 2 µg/mL (≈ 1.75 µM) | <0.125 µg/mL | 
CC[C@@H]1NC(=O)[C@@H](CC(C)C)NC(=O)[C@H](CCN)NC(=O)[C@@H](NC(=O)[C@H](CN)NC(=O)[C@@H](NC(=O)[C@H](CCN)NC(=O)c2ccc3scnc3c2)[C@@H](C)O)CCNC(=O)[C@H]([C@@H](C)O)NC(=O)[C@H](CCN)NC(=O)[C@H](CCN)NC1=O [Compound 53] ({Benzothiazole(5-carbonyl)}-[Dab]T[Dap][Dab][Dab][dL][Abu][Dab][Dab]T; lactam 4-C; N-terminus assumed) | 1 µg/mL (≈ 0.871 µM) | 0.5 µg/mL (≈ 0.435 µM) | 0.5 µg/mL (≈ 0.435 µM) | 2 µg/mL (≈ 1.74 µM) | 0.25 µg/mL (≈ 0.218 µM) | 0.25 µg/mL (≈ 0.218 µM) | <0.125 µg/mL | 2 µg/mL (≈ 1.74 µM) | 0.5 µg/mL (≈ 0.435 µM) | <0.125 µg/mL | 0.5 µg/mL (≈ 0.435 µM) | 2 µg/mL (≈ 1.74 µM) | <0.125 µg/mL | 
CC[C@@H]1NC(=O)[C@@H](CC(C)C)NC(=O)[C@H](CCN)NC(=O)[C@@H](NC(=O)[C@H](CN)NC(=O)[C@@H](NC(=O)[C@H](CCN)NC(=O)c2n[nH]c3ccccc23)[C@@H](C)O)CCNC(=O)[C@H]([C@@H](C)O)NC(=O)[C@H](CCN)NC(=O)[C@H](CCN)NC1=O [Compound 54] (Indazole3carbonyl-[Dab]T[Dap][Dab][Dab][dL][Abu][Dab][Dab]T; lactam 4-C) |  |  |  |  |  |  |  |  |  |  |  |  |  | Minimum inhibitory concentration ([1]; A. baumannii FADDI-AB030, CAMHB broth microdilution): 0.25 µg/mL (≈ 0.221 µM); Minimum inhibitory concentration ([2]; P. aeruginosa ATCC 27853, CAMHB broth microdilution): 0.5 µg/mL (≈ 0.442 µM); Minimum inhibitory concentration ([3]; K. pneumoniae Kp BM1, CAMHB broth microdilution): <0.125 µg/mL; Minimum inhibitory concentration ([4]; E. cloacae FADDI-EC006, CAMHB broth microdilution): 0.5 µg/mL (≈ 0.442 µM); Minimum inhibitory concentration ([5]; E. cloacae FADDI-EC003, CAMHB broth microdilution): 0.5 µg/mL (≈ 0.442 µM); Minimum inhibitory concentration ([6]; P. aeruginosa FADDI-PA022, CAMHB broth microdilution): 0.5 µg/mL (≈ 0.442 µM); Minimum inhibitory concentration ([7]; K. pneumoniae FADDI-KP032, CAMHB broth microdilution): <0.125 µg/mL; Minimum inhibitory concentration ([8]; A. baumannii FADDI-AB034, CAMHB broth microdilution): 0.5 µg/mL (≈ 0.442 µM); Minimum inhibitory concentration ([9]; P. aeruginosa FADDI-PA038, CAMHB broth microdilution): 0.25 µg/mL (≈ 0.221 µM); Minimum inhibitory concentration ([10]; K. pneumoniae FADDI-KP022, CAMHB broth microdilution): <0.125 µg/mL; Minimum inhibitory concentration ([11]; P. aeruginosa FADDI-PA01, CAMHB broth microdilution): 0.25 µg/mL (≈ 0.221 µM); Minimum inhibitory concentration ([12]; A. baumannii ATCC 17978, CAMHB broth microdilution): 1 µg/mL (≈ 0.884 µM); Minimum inhibitory concentration ([13]; E. cloacae FADDI-EC001, CAMHB broth microdilution): <0.125 µg/mL
CC[C@@H]1NC(=O)[C@@H](CC(C)C)NC(=O)[C@H](CCN)NC(=O)[C@@H](NC(=O)[C@H](CN)NC(=O)[C@@H](NC(=O)[C@H](CCN)NC(=O)c2ccc3ccccc3n2)[C@@H](C)O)CCNC(=O)[C@H]([C@@H](C)O)NC(=O)[C@H](CCN)NC(=O)[C@H](CCN)NC1=O [Compound 55] (Quinaldoyl-[Dab]T[Dap][Dab][Dab][dL][Abu][Dab][Dab]T; lactam 4-C) | 0.25 µg/mL (≈ 0.219 µM) | 0.25 µg/mL (≈ 0.219 µM) | 0.5 µg/mL (≈ 0.438 µM) | <0.125 µg/mL | <0.125 µg/mL | <0.125 µg/mL | <0.125 µg/mL | 0.25 µg/mL (≈ 0.219 µM) | 0.25 µg/mL (≈ 0.219 µM) | <0.125 µg/mL | 0.25 µg/mL (≈ 0.219 µM) | 1 µg/mL (≈ 0.875 µM) | <0.125 µg/mL | 
